# Reference: patent US12435031B2, “Compound with broad-spectrum antibacterial activity and its antibacterial composition” (CHINA AGRICULTURAL UNIVERSITY, priority 2023, dated 2025)
# Where two headings read alike, the source gives them in different places.
# Tests used:
# MRSA T144 [1] = conditions: Galleria mellonella infected with MRSA T144, 2 mg/kg b.w. 1 hour after infection, within 5 days
# MRSA T144 [2] = conditions: C57BL/6J mice infected i.p. with MRSA T144, 10 mg/kg b.w. 1 hour after infection, within 3 days
# [3] = test system: Trichophyton ATCC MTA-4439; experiment: MIC against pathogenic fungi, Trichophyton; type: cell-based; conditions: Trichophyton, read-out: MICs
# Staphylococcus = experiment: microbe, parasite or virus in culture; type: cell-based
# MRSA T144 [4] = conditions: BAB159 at its MIC concentration, OD 600 nm over 24 hours
# [5] = MIC against pathogenic fungi, Candida ATCC 6258; type: cell-based; conditions: ATCC6258; Candida albicans ATCC 6258 (Candida krusei ATCC 6258)
# [6] = test system: Candida albicans, Aspergillus flavus, Aspergillus niger, and Trichophyton; experiment: MIC against common clinical pathogenic fungi (summary); type: cell-based; conditions: range over species
# [7] = test system: Aspergillus flavus ATCC 11492; experiment: MIC against pathogenic fungi, Aspergillus flavus; type: cell-based; conditions: ATCC11492
# Clostridium perfringens [8] = experiment: microbe, parasite or virus in culture; type: cell-based; conditions: Clostridium perfringens
# Haemophilus = experiment: MIC, broth microdilution, Haemophilus; type: cell-based
# Enterococcus = experiment: microbe, parasite or virus in culture; type: cell-based
# [9] = Pharmacokinetics in rabbit plasma after intramuscular injection; type: in vivo, rabbits; conditions: for Cmax: 20 mg/kg
# Protocol: In order to investigate the metabolic residues of BAB159 in model animals, rabbits were used as animal models to quantitatively analyze the levels of BAB159 in rabbit plasma. Male Chinese white rabbits weighing around 2 kg were adaptively fed for one week. Then, 2 mL of BAB159 suspension was injected into the left hind thigh muscle of the rabbits at a dose of 20 mg/kg b.w. Blood samples were collected from the ear vein at 8 time points, including 0.5, 1, 2, 4, 6, 8, 12, and 24 hours after administration. After pre-treatment of the plasma samples, UPLC-MS/MS detection was performed.
# Bacillus = experiment: microbe, parasite or virus in culture; type: cell-based
# [10] = test system: Staphylococcus aureus ATCC 25923; experiment: Growth curve (OD 600 nm, 24 h), Staphylococcus aureus; conditions: Staphylococcus aureus ATCC 25923, BAB159 at its MIC concentration, OD 600 nm over 24 hours
# Clostridium perfringens [11] = experiment: microbe, parasite or virus in culture; type: cell-based; conditions: read-out: MICs
# Streptococcus = experiment: microbe, parasite or virus in culture; type: cell-based
# [12] = test system: Aspergillus niger ATCC 96918; experiment: MIC against pathogenic fungi, Aspergillus niger; type: cell-based
# Mycobacterium smegmatis = experiment: microbe, parasite or virus in culture; type: cell-based; conditions: Mycolicibacterium smegmatis, read-out: MICs
# [13] = read-out: minimum inhibitory concentration (MIC50)
# [14] = male, Chinese white, im, rabbit plasma, intramuscular injection, 20 mg/kg b.w.
# [15] = male, Chinese white, rabbit, plasma, im, rabbits, intramuscular injection, 20 mg/kg b.w.
compound,measurement,setting,value
O=C(Nc1ccc(C(F)(F)F)c(Cl)c1Cl)c1cc(Cl)ccc1O [BAB159],protective rate,MRSA T144 [1],70%
same,protective rate,MRSA T144 [2],100%
same,MIC,[3],0.125 mg/L
same,MIC50,Staphylococcus; Staphylococcus,0.0156 mg/L
same,MIC,"Staphylococcus; Staphylococcus, read-out: MICs",0.01 mg/L
same,MIC50,Staphylococcus; [13],0.01 mg/L
same,growth inhibition (growth curve),MRSA T144 [4],significantly inhibit the growth
same,MIC,[5],1 mg/L
same,MIC,[6],0.5 to 1 mg/L
same,MIC,[7],1 mg/L
same,MIC50,Clostridium perfringens [8],0.25 mg/L
same,MIC90,Clostridium perfringens [8],0.5 mg/L
same,MIC,"Clostridium perfringens [8]; read-out: MIC value against Clostridium perfringens, strain A3-1 (A-type)",0.5 mg/L
same,MIC,"Clostridium perfringens [8]; read-out: MIC value against Clostridium perfringens, strain A3-2 (A-type)",0.25 mg/L
same,MIC,"Clostridium perfringens [8]; read-out: MIC value against Clostridium perfringens, strain A57-1 (A-type)",0.25 mg/L
same,MIC,"Clostridium perfringens [8]; read-out: MIC value against Clostridium perfringens, strain B4 (B-type)",0.5 mg/L
same,MIC,"Clostridium perfringens [8]; read-out: MIC value against Clostridium perfringens, strain B5 (B-type)",0.25 mg/L
same,MIC,"Clostridium perfringens [8]; read-out: MIC value against Clostridium perfringens, strain C3 (C-type)",0.5 mg/L
same,MIC,"Clostridium perfringens [8]; read-out: MIC value against Clostridium perfringens, strain C8 (C-type)",0.25 mg/L
same,MIC,"Clostridium perfringens [8]; read-out: MIC value against Clostridium perfringens, strain C59-1 (C-type)",0.25 mg/L
same,MIC,"Clostridium perfringens [8]; read-out: MIC value against Clostridium perfringens, strain D14B (D-type)",0.25 mg/L
same,MIC,"Clostridium perfringens [8]; read-out: MIC value against Clostridium perfringens, strain F5-2 (F-type)",0.25 mg/L
same,MIC,"Clostridium perfringens [8]; read-out: MIC value against Clostridium perfringens, strain F6-1 (F-type)",0.25 mg/L
same,MIC,"Clostridium perfringens [8]; read-out: MIC value against Clostridium perfringens, strain F6-2 (F-type)",0.5 mg/L
same,MIC,"Clostridium perfringens [8]; read-out: MIC value against Clostridium perfringens, strain F6-2-1 (F-type)",0.5 mg/L
same,MIC,"Clostridium perfringens [8]; read-out: MIC value against Clostridium perfringens, strain F6-2-2 (F-type)",0.25 mg/L
same,MIC,"Clostridium perfringens [8]; read-out: MIC value against Clostridium perfringens, strain F7-1 (F-type)",0.5 mg/L
same,MIC,"Clostridium perfringens [8]; read-out: MIC value against Clostridium perfringens, strain F8-1 (F-type)",0.5 mg/L
same,MIC,"Clostridium perfringens [8]; read-out: MIC value against Clostridium perfringens, strain H12-1 (H-type)",0.25 mg/L
same,MIC,"Clostridium perfringens [8]; read-out: MIC value against Clostridium perfringens, strain H12-2 (H-type)",0.25 mg/L
same,MIC,"Clostridium perfringens [8]; read-out: MIC value against Clostridium perfringens, strain H13-1 (H-type)",0.5 mg/L
same,MIC,"Clostridium perfringens [8]; read-out: MIC value against Clostridium perfringens, strain H14-1 (H-type)",0.5 mg/L
same,MIC,"Clostridium perfringens [8]; read-out: MIC value against Clostridium perfringens, strain H14-2 (H-type)",0.5 mg/L
same,MIC,"Clostridium perfringens [8]; read-out: MIC value against Clostridium perfringens, strain H14-4 (H-type)",0.5 mg/L
same,MIC,"Clostridium perfringens [8]; read-out: MIC value against Clostridium perfringens, strain H15-1 (H-type)",0.25 mg/L
same,MIC,"Clostridium perfringens [8]; read-out: MIC value against Clostridium perfringens, strain H15-2 (H-type)",0.5 mg/L
same,MIC,"Clostridium perfringens [8]; read-out: MIC value against Clostridium perfringens, strain H15-3 (H-type)",0.25 mg/L
same,MIC,"Clostridium perfringens [8]; read-out: MIC value against Clostridium perfringens, strain H16 (H-type)",0.25 mg/L
same,MIC,"Clostridium perfringens [8]; read-out: highest MIC value, against 26 tested strains of Clostridium perfringens",0.5 mg/L
same,MIC50,"Haemophilus; Haemophilus, read-out: minimum inhibitory concentration (MIC50)",16 mg/L
same,MIC,Haemophilus; gram-negative bacteria such as Haemophilus,8 to 32 mg/L
same,MIC,Enterococcus; read-out: MICs,0.25 mg/L
same,MIC50,Enterococcus; [13],0.25 mg/L
same,AUIC,[9]; AUC after intramuscular injection in rabbits to MIC50 against Staphylococcus,109
same,AUC,[9]; [14],1.71 µg·h/mL
same,Tmax,[9]; [14],6 h
same,Cmax,"[9]; male, Chinese white, rabbit, plasma, im, rabbit plasma, intramuscular injection, 20 mg/kg b.w., read-out: Cmax",0.207 µg/mL
same,AUC(0-t),[9]; [15],1.64 ± 0.0705 µg·h/mL
same,half-life,[9]; [15],16.1 ± 3.6 h
same,Cmax,"[9]; rabbit plasma, intramuscular injection, 20 mg/kg b.w.",0.1482 ± 0.01305 µg/mL
same,MIC,Bacillus; read-out: MICs,0.01 mg/L
same,MIC50,Bacillus; [13],0.01 mg/L
same,growth inhibition (growth curve),[10],significantly inhibit the growth
same,MIC,Clostridium perfringens [11],0.25 mg/L
same,MIC,Streptococcus; read-out: MICs,0.125 mg/L
same,MIC50,Streptococcus; [13],0.125 mg/L
same,MICs,[12]; Aspergillus niger ATCC 96918,0.5 µg/mL
same,MIC,"[12]; Aspergillus niger, ATCC96918, Aspergillus niger ATCC 96918",0.25 mg/L
same,MIC,Mycobacterium smegmatis,2 mg/L
